Patent publication US4572908A, “Dihydropyridines” (Pfizer Inc., priority 1982, dated 1986)

Tested on: rat aorta
Test: inhibition of calcium-induced contraction (change in tension) of spirally cut strips of rat aorta in K+ 45 mM saline
Type: cell-based
Details: 0.75 h, 45 millimolar potassium, 2 millimolar calcium, 45 minutes, read-out: IC50 (molar concentration required to reduce the response by 50%)
Method: The ability of the compounds to inhibit the movement of calcium into the cell is shown by their effectiveness in reducing the response of isolated heart tissue to an increase in calcium ion concentration in vitro. The test is performed by mounting spirally cut strips of rat aorta with one end fixed and the other attached to a force transducer. The tissue is immersed in a bath of physiological saline solution containing potassium ions at a concentration of 45 millimolar and no calcium. Calcium chloride is added to the bath with a pipette to give a final calcium ion concentration of 2 millimolar. The change in tension caused by the resulting contraction of the tissue is noted. The bath is drained and replaced with fresh saline solution and, after 45 minutes, the test is repeated with the particular compound under test present in the saline solution. The concentration of compound required to reduce the response by 50% (IC50) is recorded.
The molar concentrations of the compounds required to reduce the response by 50% in the test specified on pages 16-17 are given below (1M=1 gm.Mole/liter).

Structure (SMILES) | IC50 [nM]
CCOC(=O)C1=C(COCCNc2n[s+]([O-])nc2OC)NC(C)=C(C(=O)OC)C1c1cccc(C(F)(F)F)c1Cl (centres unmarked) [Example 66] | 2.24
CCOC(=O)C1=C(COCCNc2nccnc2N2CCOCC2)NC(C)=C(C(=O)OC)C1c1ccccc1Cl (centres unmarked) [Example 87] | 100
CCOC(=O)C1=C(COCCNc2cc(=O)[nH]cn2)NC(C)=C(C(=O)OC)C1c1cccc(Cl)c1Cl (centres unmarked) [Example 41] | 0.776
CCOC(=O)C1=C(COCCNc2nc(N)c3cc(OC)c(OC)cc3n2)NC(C)=C(C(=O)OC)C1c1cccc(Cl)c1Cl (centres unmarked) [Example 48] | 29.5
CCOC(=O)C1=C(COCCNc2nc(N)n(C)n2)NC(C)=C(C(=O)OC)C1c1cccc(Cl)c1Cl (centres unmarked) [Example 5] | 3.02
CCOC(=O)C1=C(COCCNc2ccc(S(=O)(=O)N3CCCCC3)cn2)NC(C)=C(C(=O)OC)C1c1cccc(Cl)c1Cl (centres unmarked) [Example 46] | 3.01
CCOC(=O)C1=C(COCCNc2n[s+]([O-])nc2N)NC(C)=C(C(=O)OC)C1c1cccc(Cl)c1Cl (centres unmarked) [Example 67, 3-{2-[(4-{2,3-Dichlorophenyl}-3-ethoxycarbonyl-5-methoxycarbonyl-6-methyl-1,4-dihydropyrid-2-yl)methoxy]ethylamino}-4-amino-1,2,5-thiadiazole-1-oxide hemihydrate] | 19.9
CCOC(=O)C1=C(COCCNC2=NCC(=O)N2)NC(C)=C(C(=O)OC)C1c1cccc(Cl)c1Cl (centres unmarked) [Example 37] | 10
CCOC(=O)C1=C(COCCNc2ccc(C(N)=O)cn2)NC(C)=C(C(=O)OC)C1c1cccc(C(F)(F)F)c1Cl (centres unmarked) [Example 63] | 2.95
CCOC(=O)C1=C(COCCNc2nc(C)cc(=O)[nH]2)NC(C)=C(C(=O)OC)C1c1cccc(Cl)c1Cl (centres unmarked) [Example 42] | 4.16
CCOC(=O)C1=C(COCCNc2cc(N3CCN(C)CC3)ncn2)NC(C)=C(C(=O)OC)C1c1cccc(Cl)c1Cl (centres unmarked) [Example 81] | 3.16
CCOC(=O)C1=C(COCCNC2=NC(C)(C)C(=O)N2)NC(C)=C(C(=O)OC)C1c1cccc(Cl)c1Cl (centres unmarked) [Example 38] | 25.1
CCOC(=O)C1=C(COCCNc2nccnc2NC)NC(C)=C(C(=O)OC)C1c1cccc(Cl)c1Cl (centres unmarked) [Example 84] | 5.01
CCOC(=O)C1=C(COCCNc2cc(OC)ncn2)NC(C)=C(C(=O)OC)C1c1cccc(Cl)c1Cl (centres unmarked) [Example 54] | 1.2
CCOC(=O)C1=C(COCCNC2=NC(=O)CS2)NC(C)=C(C(=O)OC)C1c1cccc(C(F)(F)F)c1Cl (centres unmarked) [Example 75] | 7.08
CCOC(=O)C1=C(COCCNc2ccc(S(=O)(=O)N3CCOCC3)cn2)NC(C)=C(C(=O)OC)C1c1cccc(Cl)c1Cl (centres unmarked) [Example 45] | 1.09
CCOC(=O)C1=C(COCCNc2nccnc2Cl)NC(C)=C(C(=O)OC)C1c1cccc(Cl)c1Cl (centres unmarked) [Example 51] | 2.51
CCOC(=O)C1=C(COCCNc2cc(N3CCCCC3)ncn2)NC(C)=C(C(=O)OC)C1c1cccc(Cl)c1Cl (centres unmarked) [Example 82] | 4.07

Second part, the compound after the results:

IC50 [nM] | Structure (SMILES)
25.1 | CCOC(=O)C1=C(COCCNc2n[s+]([O-])nc2OC)NC(C)=C(C(=O)OC)C1c1ccccc1Cl (centres unmarked) [Example 65]
28.8 | CCOC(=O)C1=C(COCCNc2cc[nH]c(=O)n2)NC(C)=C(C(=O)OC)C1c1ccccc1Cl (centres unmarked) [Example 12]
11.5 | CCOC(=O)C1=C(COCCNc2noc(N)n2)NC(C)=C(C(=O)OC)C1c1ccccc1Cl (centres unmarked) [Example 6, 2-[2-(5-Amino-1,2,4-oxadiazol-3-ylamino)ethoxymethyl]-4-(2-chlorophenyl)-3-ethoxycarbonyl-5-methoxycarbonyl-6-methyl-1,4-dihydropyridine]
3.98 | CCOC(=O)C1=C(COCCNc2nc3ccccc3nc2Cl)NC(C)=C(C(=O)OC)C1c1cccc(Cl)c1Cl (centres unmarked) [Example 49]
6.6 | CCOC(=O)C1=C(COCCNc2nc(NC(=O)NC)n(C)n2)NC(C)=C(C(=O)OC)C1c1ccccc1Cl (centres unmarked) [Example 79, hydrate]
1.34 | CCOC(=O)C1=C(COCCNc2c[n+]([O-])ccn2)NC(C)=C(C(=O)OC)C1c1cccc(Cl)c1Cl (centres unmarked) [Example 50, N-oxide of 4-(2,3-dichlorophenyl)-3-ethoxycarbonyl-5-methoxycarbonyl-6-methyl-2-[2-(pyrazin-2-ylamino)ethoxymethyl]-1,4-dihydropyridine]
5.75 | CCOC(=O)C1=C(COCCNc2ccc(S(N)(=O)=O)cn2)NC(C)=C(C(=O)OC)C1c1ccccc1Cl (centres unmarked) [Example 35]
10 | CCOC(=O)C1=C(COCCNc2cc(=O)[nH]cn2)NC(C)=C(C(=O)OC)C1c1ccccc1Cl (centres unmarked) [Example 14]
10 | CCOC(=O)C1=C(COCCNc2nc(C)cc(=O)[nH]2)NC(C)=C(C(=O)OC)C1c1ccccc1Cl (centres unmarked) [Example 24]
20 | CCOC(=O)C1=C(COCCNC2=NC(=O)CS2)NC(C)=C(C(=O)OC)C1c1ccccc1Cl (centres unmarked) [Example 74]
17.7 | CCOC(=O)C1=C(COCCNc2cc(Cl)ncn2)NC(C)=C(C(=O)OC)C1c1ccccc1Cl (centres unmarked) [Example 31]
100 | CCOC(=O)C1=C(COCCNc2ncnc3[nH]cnc23)NC(C)=C(C(=O)OC)C1c1ccccc1Cl (centres unmarked) [Example 16]
100 | CCOC(=O)C1=C(COCCNC2=NCCC2)NC(C)=C(C(=O)OC)C1c1ccccc1Cl (centres unmarked) [Example 20]
15.8 | CCOC(=O)C1=C(COCCNc2nc(-c3ccccn3)cc(=O)[nH]2)NC(C)=C(C(=O)OC)C1c1cccc(Cl)c1Cl (centres unmarked) [Example 44]
8.31 | CCOC(=O)C1=C(COCCNc2nc(-c3ccccc3)cc(=O)[nH]2)NC(C)=C(C(=O)OC)C1c1cccc(Cl)c1Cl (centres unmarked) [Example 43]
3.71 | CCOC(=O)C1=C(COCCNc2ncc(S(=O)(=O)N(C)C)s2)NC(C)=C(C(=O)OC)C1c1ccccc1Cl (centres unmarked) [Example 26]
10 | CCOC(=O)C1=C(COCCNc2nc3ccccc3s2)NC(C)=C(C(=O)OC)C1c1ccccc1Cl (centres unmarked) [Example 19]
2.23 | CCOC(=O)C1=C(COCCNc2ccnc(N)n2)NC(C)=C(C(=O)OC)C1c1cccc(Cl)c1Cl (centres unmarked) [Example 40]
100 | CCOC(=O)C1=C(COCCNC2=NC(C)(C)C(=O)N2)NC(C)=C(C(=O)OC)C1c1ccccc1Cl (centres unmarked) [Example 23]
9.33 | CCOC(=O)C1=C(COCCNC2=NCCS2)NC(C)=C(C(=O)OC)C1c1ccccc1Cl (centres unmarked) [Example 70, 4-(2-Chlorophenyl)-3-ethoxycarbonyl-5-methoxycarbonyl-6-methyl-2-[2-(2-thiazolin-2-ylamino)ethoxymethyl]-1,4-dihydropyridine]
13.1 | CCOC(=O)C1=C(COCCNc2nccc(C#N)n2)NC(C)=C(C(=O)OC)C1c1ccccc1Cl (centres unmarked) [Example 28]
12.6 | CCOC(=O)C1=C(COCCNC2=NCC(=O)N2)NC(C)=C(C(=O)OC)C1c1ccccc1Cl (centres unmarked) [Example 9]
45.7 | CCOC(=O)C1=C(COCCNc2ncccc2C(N)=O)NC(C)=C(C(=O)OC)C1c1ccccc1Cl (centres unmarked) [Example 25]
10 | CCOC(=O)C1=C(COCCNc2n[nH]c(O)n2)NC(C)=C(C(=O)OC)C1c1cccc(Cl)c1Cl (centres unmarked) [Example 90B, 4-(2,3-Dichlorophenyl)-3-ethoxycarbonyl-2-[2-(5-hydroxy-1H-1,2,4-triazol-3-ylamino)ethoxymethyl]-5-methoxycarbonyl-6-methyl-1,4-dihydropyridine hydrate]
13.1 | CCOC(=O)C1=C(COCCNc2n[s+]([O-])nc2N)NC(C)=C(C(=O)OC)C1c1ccccc1Cl (centres unmarked) [Example 68]
2.34 | CCOC(=O)C1=C(COCCNc2cc(=O)n(C)cn2)NC(C)=C(C(=O)OC)C1c1ccccc1Cl (centres unmarked) [Example 30]
